Three molecules from patent US7678818B2, “Anthranilamide and 2-amino-heteroarene-carboxamide compounds” (Hoffmann-La Roche Inc., priority 2006, dated 2010) can be followed below.

The target in this test is T1, cholesteryl ester transfer protein (CETP) from human lipoprotein-deprived serum (LPDS) (Homo sapiens, UniProt P11597).
T1 construct: the source of CETP was human lipoprotein-deprived serum (LPDS); from tissue; host or cells: human lipoprotein-deprived serum (LPDS)
T1 sequence (P11597 18-493): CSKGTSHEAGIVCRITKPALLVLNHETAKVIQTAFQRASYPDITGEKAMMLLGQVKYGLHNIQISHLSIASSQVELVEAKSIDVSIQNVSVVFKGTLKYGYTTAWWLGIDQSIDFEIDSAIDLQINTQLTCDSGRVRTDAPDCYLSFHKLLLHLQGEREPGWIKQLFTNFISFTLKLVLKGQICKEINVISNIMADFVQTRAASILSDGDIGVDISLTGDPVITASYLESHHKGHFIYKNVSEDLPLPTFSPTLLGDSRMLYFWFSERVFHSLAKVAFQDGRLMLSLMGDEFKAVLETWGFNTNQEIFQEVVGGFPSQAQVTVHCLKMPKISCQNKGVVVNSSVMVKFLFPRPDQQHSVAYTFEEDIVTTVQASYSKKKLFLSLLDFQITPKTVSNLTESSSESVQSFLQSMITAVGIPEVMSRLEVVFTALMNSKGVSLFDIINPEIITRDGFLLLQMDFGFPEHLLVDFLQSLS
Nature of the test: CETP inhibition in the presence of plasma (SPA assay, CETP source human lipoprotein-deprived serum). It is filed as biochemical. On the procedure:
Activity of CETP inhibitors was determined using a buffer assay system. Partially purified CETP transferred radiolabeled cholesteryl ester from HDL donor particles to biotin-labeled LDL acceptor particles. The reaction was stopped by addition of streptavidin-coupled scintillation proximity assay (SPA) beads. These beads captured the biotinylated acceptor particles and transferred radioactivity was measured. The assay system was purchased and performed according to manufacturer's recommendations (Amersham Biosciences). Inhibitory activity of compounds was determined as percentage of positive control activity containing CETP together with donor and acceptor particles. Serial dilution of compounds was performed in order to determine the IC50 values.
Activity of the compounds was subsequently measured in the presence of plasma using the same assay as described above except that the source of CETP was human lipoprotein-deprived serum (LPDS). Inhibitory activity of compounds was determined as percentage of positive control activity containing all the assay components except compound. Serial dilution of compounds was performed in order to determine the IC50 values.

Usually IC50 stands for the concentration that gives 50% inhibition. As to `CC(C)(C)c1ccc(CN(CCc2cccc(C(F)(F)F)c2)C(=O)c2cccnc2N)cc1` [Compound 13.63, 2-Amino-N-(4-tert-butyl-benzyl)-N-[2-(3-trifluoromethyl-phenyl)-ethyl]-nicotinamide], the IC50 was found to be 30 µM.

In the case of `CNc1c(Cl)ccc(F)c1C(=O)N(CCc1cccc(C(F)(F)F)c1)Cc1ccc(C(C)(C)C)cc1` [Compound 13.254, N-(4-tert-Butyl-benzyl)-3-chloro-6-fluoro-2-methylamino-N-[2-(3-trifluoromethyl-phenyl)-ethyl]-benzamide], the IC50 is 0.295 µM.

For the molecule `CCC(=O)Nc1ccc(Cl)c(Cl)c1C(=O)N(CCc1cccc(C(F)(F)F)c1)Cc1ccc(C(C)(C)C)cc1` [Compound 13.230, N-(4-tert-Butyl-benzyl)-2,3-dichloro-6-propionylamino-N-[2-(3-trifluoromethyl-phenyl)-ethyl]-benzamide], the IC50 turned out to be 5.61 µM.
